Measured values taken from ChEMBL document CHEMBL5058564, “EUbOPEN Chemogenomics Library 2 (Incucyte)” (2022).
“And” between values parts separate entries of the source, which are not always exact repeats. Equal values may be shown once.

How the values were obtained:
Assay type in all cases: toxicity, cell-based
HEK-293T = experiment: Incucyte cell viability with HEK293T; details: human, 10 µM, compound concentration 10 uM
Fibroblast = experiment: Incucyte cell viability with human fibroblast; details: 10 µM, compound concentration 10 uM
U2OS = experiment: Incucyte cell viability with U2OS; details: human, 10 µM, compound concentration 10 uM
[1] = 0 h, replicate number 1, timepoint 0 hours
[2] = 0 h, replicate number 2, timepoint 0 hours
[3] = 6 h, replicate number 1, timepoint 6 hours
[4] = 6 h, replicate number 2, timepoint 6 hours
[5] = 12 h, replicate number 1, timepoint 12 hours
[6] = 12 h, replicate number 2, timepoint 12 hours
[7] = 18 h, replicate number 1, timepoint 18 hours
[8] = 18 h, replicate number 2, timepoint 18 hours
[9] = 24 h, replicate number 1, timepoint 24 hours
[10] = 24 h, replicate number 2, timepoint 24 hours
Also: unitless GR value; below 1 slowed growth and below 0 cell loss.

## O=c1ccn([C@@H]2O[C@H](COP(=O)([O-])OP(=O)([O-])OP(=O)([O-])O)[C@@H](O)[C@H]2O)c(=O)[nH]1.[Na+].[Na+].[Na+]
HEK-293T; [1]
  Growth Rate: 0.09
HEK-293T; [2]
  Growth Rate: 0.62
HEK-293T; [3]
  Growth Rate: 0.64
HEK-293T; [4]
  Growth Rate: 0.41
HEK-293T; [5]
  Growth Rate: 0.84
HEK-293T; [6]
  Growth Rate: 0.64
HEK-293T; [7]
  Growth Rate: 0.92
HEK-293T; [8]
  Growth Rate: 0.75
HEK-293T; [9]
  Growth Rate: 0.85
HEK-293T; [10]
  Growth Rate: 0.72
Fibroblast; [2]
  Growth Rate: 0.81
Fibroblast; [3]
  Growth Rate: 0.2
Fibroblast; [4]
  Growth Rate: 0.66
Fibroblast; [5]
  Growth Rate: 0.12
Fibroblast; [6]
  Growth Rate: 0.75
Fibroblast; [7]
  Growth Rate: 0.29
Fibroblast; [8]
  Growth Rate: 0.88
Fibroblast; [9]
  Growth Rate: 0.13
Fibroblast; [10]
  Growth Rate: 0.78
U2OS; [1]
  Growth Rate: 0.49
U2OS; [2]
  Growth Rate: 0.48
U2OS; [3]
  Growth Rate: 0.21
U2OS; [4]
  Growth Rate: 0.83
U2OS; [5]
  Growth Rate: 0.6
U2OS; [6]
  Growth Rate: 0.94
U2OS; [7]
  Growth Rate: 0.83
U2OS; [8]
  Growth Rate: 0.93
U2OS; [9]
  Growth Rate: 0.99
U2OS; [10]
  Growth Rate: 0.94

## O=C(O)COc1cccc(-c2ocnc2-c2nc(-c3ccccc3)c(-c3ccccc3)o2)c1
HEK-293T; [1]
  Growth Rate: 0.53
HEK-293T; [2]
  Growth Rate: -0.17
HEK-293T; [5]
  Growth Rate: 0.79
HEK-293T; [7]
  Growth Rate: 0.67
HEK-293T; [9]
  Growth Rate: 0.9
HEK-293T; [10]
  Growth Rate: 0.98
Fibroblast; [1]
  Growth Rate: 0.04
Fibroblast; [2]
  Growth Rate: 0.64
Fibroblast; [3]
  Growth Rate: 0.49
Fibroblast; [4]
  Growth Rate: 0.07
Fibroblast; [5]
  Growth Rate: 0.59
Fibroblast; [6]
  Growth Rate: 0.91
Fibroblast; [7]
  Growth Rate: 0.64
Fibroblast; [9]
  Growth Rate: 0.59
U2OS; [1]
  Growth Rate: -0.56
U2OS; [2]
  Growth Rate: 0.7
U2OS; [5]
  Growth Rate: 0.74
U2OS; [7]
  Growth Rate: 0.88
U2OS; [9]
  Growth Rate: 1

## CNC(=O)c1nn(C)c2c1C(C)(C)Cc1cnc(Nc3ccc(N4CCN(C)CC4)cc3)nc1-2 [MILCICLIB]
HEK-293T; [3]
  Growth Rate: -0.57
HEK-293T; [4]
  Growth Rate: -0.72
HEK-293T; [5]
  Growth Rate: -0.22
HEK-293T; [6]
  Growth Rate: -0.34
HEK-293T; [7]
  Growth Rate: -0.12
HEK-293T; [8]
  Growth Rate: -0.15
HEK-293T; [9]
  Growth Rate: -0.02
HEK-293T; [10]
  Growth Rate: -0.01
Fibroblast; [2]
  Growth Rate: 1
Fibroblast; [3]
  Growth Rate: -0.13
Fibroblast; [4]
  Growth Rate: -0.21
Fibroblast; [5]
  Growth Rate: -0.1
Fibroblast; [6]
  Growth Rate: -0.07
Fibroblast; [7]
  Growth Rate: 0.24
Fibroblast; [8]
  Growth Rate: 0.23
Fibroblast; [9]
  Growth Rate: 0.34
Fibroblast; [10]
  Growth Rate: 0.33
U2OS; [1]
  Growth Rate: -0.33
U2OS; [3]
  Growth Rate: 0.35
U2OS; [4]
  Growth Rate: 0.23
U2OS; [5]
  Growth Rate: 0.17
U2OS; [6]
  Growth Rate: 0.29
U2OS; [7]
  Growth Rate: 0.23
U2OS; [8]
  Growth Rate: 0.38
U2OS; [9]
  Growth Rate: 0.21
U2OS; [10]
  Growth Rate: 0.25

## Cc1ccc(O)c([C@H](CCN(C(C)C)C(C)C)c2ccccc2)c1.O=C(O)C(O)C(O)C(=O)O [TOLTERODINE TARTRATE]
HEK-293T; [2]
  Growth Rate: 0.52
HEK-293T; [3]
  Growth Rate: 0.89
HEK-293T; [5]
  Growth Rate: 0.79
Fibroblast; [2]
  Growth Rate: 0.83
Fibroblast; [3]
  Growth Rate: 0.59
Fibroblast; [5]
  Growth Rate: 0.92
U2OS; [1]
  Growth Rate: -0.73
U2OS; [2]
  Growth Rate: 0.94
U2OS; [3]
  Growth Rate: 0.98

## CCCCCCCC/C=C\CCCCCCCC(N)=O [OLEAMIDE]
HEK-293T; [1]
  Growth Rate: 0.61
HEK-293T; [2]
  Growth Rate: 0.35
HEK-293T; [3]
  Growth Rate: 0.79
HEK-293T; [5]
  Growth Rate: 0.8
HEK-293T; [6]
  Growth Rate: 0.99
HEK-293T; [7]
  Growth Rate: 0.89
HEK-293T; [8]
  Growth Rate: 0.94
HEK-293T; [9]
  Growth Rate: 0.96
HEK-293T; [10]
  Growth Rate: 1
Fibroblast; [1]
  Growth Rate: 0.63
Fibroblast; [2]
  Growth Rate: 0.02
Fibroblast; [4]
  Growth Rate: 0.82
U2OS; [1]
  Growth Rate: 0.24
U2OS; [2]
  Growth Rate: 0.51
U2OS; [3]
  Growth Rate: 0.78
U2OS; [4]
  Growth Rate: 1
U2OS; [5]
  Growth Rate: 0.75
U2OS; [6]
  Growth Rate: 0.79
U2OS; [7]
  Growth Rate: 0.76
U2OS; [8]
  Growth Rate: 0.89
U2OS; [9]
  Growth Rate: 0.98

## Cn1cc(C(=O)OCC2CCN(CCNS(C)(=O)=O)CC2)c2ccccc21
HEK-293T; [3]
  Growth Rate: 0.81
HEK-293T; [5]
  Growth Rate: 0.43
HEK-293T; [7]
  Growth Rate: 0.29
HEK-293T; [9]
  Growth Rate: 0.35
HEK-293T; [10]
  Growth Rate: 0.96
Fibroblast; [1]
  Growth Rate: 0.81
Fibroblast; [3]
  Growth Rate: -0.25
Fibroblast; [5]
  Growth Rate: 0.1
Fibroblast; [6]
  Growth Rate: 0.4
Fibroblast; [7]
  Growth Rate: 0.33
Fibroblast; [9]
  Growth Rate: 0.43
Fibroblast; [10]
  Growth Rate: 0.82
U2OS; [4]
  Growth Rate: 0.45
U2OS; [6]
  Growth Rate: 0.95
U2OS; [8]
  Growth Rate: 0.89

## Cc1ccc2c(c1CCC(=O)O)CC[C@@H](NS(=O)(=O)c1ccc(Cl)cc1)C2 [TERUTROBAN]
HEK-293T; [1]
  Growth Rate: 0.06
HEK-293T; [2]
  Growth Rate: 0.31
HEK-293T; [3]
  Growth Rate: 0.87
HEK-293T; [7]
  Growth Rate: 0.99
HEK-293T; [8]
  Growth Rate: 0.97
HEK-293T; [9]
  Growth Rate: 0.94
Fibroblast; [1]
  Growth Rate: -0.56
Fibroblast; [2]
  Growth Rate: 0
Fibroblast; [9]
  Growth Rate: 0.83
U2OS; [1]
  Growth Rate: -0.59
U2OS; [2]
  Growth Rate: -1

## CC(C)c1noc(N2CCC(COc3ccc(-c4ccc(S(C)(=O)=O)cc4)nc3)CC2)n1 [GSK-1292263]
HEK-293T; [3]
  Growth Rate: -0.15
HEK-293T; [4]
  Growth Rate: -0.07
HEK-293T; [5]
  Growth Rate: 0.09
HEK-293T; [6]
  Growth Rate: 0.17
HEK-293T; [7]
  Growth Rate: 0.14
HEK-293T; [8]
  Growth Rate: 0.41
HEK-293T; [9]
  Growth Rate: 0.22
HEK-293T; [10]
  Growth Rate: 0.55
Fibroblast; [1]
  Growth Rate: -0.57
Fibroblast; [2]
  Growth Rate: 0.61
Fibroblast; [4]
  Growth Rate: -0.06
Fibroblast; [6]
  Growth Rate: 0.41
Fibroblast; [7]
  Growth Rate: 0.53
Fibroblast; [8]
  Growth Rate: 0.76
U2OS; [1]
  Growth Rate: -0.92
U2OS; [2]
  Growth Rate: -0.96
U2OS; [6]
  Growth Rate: 0.96
U2OS; [7]
  Growth Rate: 0.91
U2OS; [8]
  Growth Rate: 0.85

## C[C@@H]1C[C@H]2[C@@H]3CCC4=CC(=O)C=C[C@]4(C)[C@@]3(F)[C@@H](O)C[C@]2(C)[C@@]1(O)C(=O)CO [DEXAMETHASONE]
HEK-293T; [1]
  Growth Rate: 0.4
HEK-293T; [5]
  Growth Rate: 0.98
HEK-293T; [7]
  Growth Rate: 0.86
HEK-293T; [9]
  Growth Rate: 0.7
HEK-293T; [10]
  Growth Rate: 0.99
Fibroblast; [1]
  Growth Rate: 0.73
Fibroblast; [3]
  Growth Rate: 0.88
U2OS; [1]
  Growth Rate: 0.07
U2OS; [2]
  Growth Rate: -1
U2OS; [4]
  Growth Rate: 0.65
U2OS; [8]
  Growth Rate: 0.95

## O=C(O)c1n[nH]c2c1C[C@H]1C[C@@H]21
HEK-293T; [1]
  Growth Rate: 0.7
HEK-293T; [2]
  Growth Rate: 0.85
HEK-293T; [3]
  Growth Rate: 0.55
HEK-293T; [4]
  Growth Rate: 0.86 and 0.89
HEK-293T; [5]
  Growth Rate: 0.71
HEK-293T; [6]
  Growth Rate: 0.64
HEK-293T; [7]
  Growth Rate: 0.67
HEK-293T; [8]
  Growth Rate: 0.58
HEK-293T; [9]
  Growth Rate: 0.7
HEK-293T; [10]
  Growth Rate: 0.58
Fibroblast; [1]
  Growth Rate: 0.67
Fibroblast; [2]
  Growth Rate: 0.18 and 0.32
Fibroblast; [3]
  Growth Rate: 0.39 and 0.14
Fibroblast; [4]
  Growth Rate: 0.95 and 0.74
Fibroblast; [5]
  Growth Rate: 0.55 and 0.57
Fibroblast; [6]
  Growth Rate: 0.86
Fibroblast; [7]
  Growth Rate: 0.72 and 0.87
Fibroblast; [8]
  Growth Rate: 0.89
Fibroblast; [9]
  Growth Rate: 0.63 and 0.53
Fibroblast; [10]
  Growth Rate: 0.79
U2OS; [3]
  Growth Rate: -0.58
U2OS; [4]
  Growth Rate: 0.74
U2OS; [6]
  Growth Rate: 0.86
U2OS; [8]
  Growth Rate: 0.91 and 0.92
U2OS; [9]
  Growth Rate: 0.99
U2OS; [10]
  Growth Rate: 1

## COc1c(C)cc(NC(=O)c2nn(Cc3ccc(F)cc3)c3c2CN(C(=O)c2ccc[nH]2)C[C@]3(C)C(N)=O)cc1C
HEK-293T; [1]
  Growth Rate: 0.79
HEK-293T; [3]
  Growth Rate: 0.35
HEK-293T; [5]
  Growth Rate: 0.13
HEK-293T; [7]
  Growth Rate: 0.11
HEK-293T; [9]
  Growth Rate: 0.15
Fibroblast; [1]
  Growth Rate: 0.8
Fibroblast; [2]
  Growth Rate: 0.51
Fibroblast; [3]
  Growth Rate: -0.71
Fibroblast; [4]
  Growth Rate: 0.46
Fibroblast; [5]
  Growth Rate: -0.33
Fibroblast; [6]
  Growth Rate: 0.15
Fibroblast; [7]
  Growth Rate: -0.18
Fibroblast; [8]
  Growth Rate: 0.32
Fibroblast; [9]
  Growth Rate: -0.31
Fibroblast; [10]
  Growth Rate: 0.29
U2OS; [1]
  Growth Rate: -0.69
U2OS; [2]
  Growth Rate: -0.16
U2OS; [3]
  Growth Rate: 0.56
U2OS; [4]
  Growth Rate: 0.73
U2OS; [5]
  Growth Rate: 0.56
U2OS; [6]
  Growth Rate: 0.68
U2OS; [7]
  Growth Rate: 0.61
U2OS; [8]
  Growth Rate: 0.66
U2OS; [9]
  Growth Rate: 0.61
U2OS; [10]
  Growth Rate: 0.67

## NC[C@H](O)c1ccc(O)c(O)c1.O.O=C(O)C(O)C(O)C(=O)O
HEK-293T; [2]
  Growth Rate: 0.69
HEK-293T; [3]
  Growth Rate: 0.63
HEK-293T; [5]
  Growth Rate: 0.75
HEK-293T; [7]
  Growth Rate: 0.76
HEK-293T; [8]
  Growth Rate: 0.8
HEK-293T; [9]
  Growth Rate: 0.86
Fibroblast; [1]
  Growth Rate: 0.92
Fibroblast; [2]
  Growth Rate: 0.62
Fibroblast; [3]
  Growth Rate: 0.19
Fibroblast; [5]
  Growth Rate: 0.79
Fibroblast; [7]
  Growth Rate: 0.97
Fibroblast; [9]
  Growth Rate: 0.77
U2OS; [2]
  Growth Rate: 0.46
U2OS; [4]
  Growth Rate: 0.72
U2OS; [6]
  Growth Rate: 0.93
U2OS; [8]
  Growth Rate: 0.98
